For the assay, the target named is T1, trypsin (Bos taurus, UniProt P00760).
T1 construct: gene PRSS1
T1 sequence (P00760 24-246): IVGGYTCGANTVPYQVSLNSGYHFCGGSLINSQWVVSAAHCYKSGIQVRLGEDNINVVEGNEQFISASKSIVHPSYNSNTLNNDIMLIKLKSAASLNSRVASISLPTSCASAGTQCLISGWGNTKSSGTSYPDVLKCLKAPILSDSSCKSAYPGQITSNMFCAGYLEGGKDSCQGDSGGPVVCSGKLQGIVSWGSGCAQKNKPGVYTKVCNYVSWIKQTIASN
In words: EMR spectroscopy of spin-labeled BSA degradation by the protease trypsin, with and without modulators. The following applies: EMR peak height versus time, compared with protease alone. Format: biochemical. From the text:
The spin label is attached to a protein and the control or un-degraded protein EMR spectrum recorded. Degradation of the protein by any degradation mechanism creates products with predictably different angular mobility than that of the control. […] Degradation is further characterized through quantitative analysis of the product and reactant subpopulations. Modulation of that degradation, regardless of the mechanism of modulation, can be expressed in a variety of ways, only one of which is an alteration in concentration of the degradation subpopulations. For example, inhibition of degradation is expressed by a reduction in concentration of relatively mobile subpopulation(s), degradation promotion by an increase in the mobile subpopulation. Chemical, biochemical and biological entities are readily tested for their potential as modulators.
Shown are EMR spectra of spin-labeled bovine serum albumin (BSA, spin label attached to BSA under conditions which favor attachment to a sulfhydryl). Key features of the intact protein's spectrum are denoted by the numbers 1 and 5. At 7, 21 and 40 minutes (spectra 2, 3 and 4 respectively) following the addition of the protease, trypsin, a second, more mobile, product population appears, characterized by three, relatively sharp peaks superimposed on the spectrum of the intact protein. Protein degradation is clearly expressed with products expressing more rapid angular mobility than reactants. Both reactant and product subpopulations are apparent in the spectra with the growth of the product population matched by a concomitant loss of reactants. Subpopulation spectra are amenable to further analyses in accord with practices associated with the selected observation method.
Shown are four EMR spectra (6, 7, 8, 9) for conditions identical to those in FIG. 1 of 5 with the exception that trypsin inhibitor is present. The presence and action of the modulator is clear and unambiguous.
Shown is the concentration of products, as reflected in the heights of the rightmost peaks labeled 1, 2, 3, and 4 in FIG. 1 of 5, versus time. […]
Take `Cc1c(O)cccc1C(=O)N[C@@H](CSc1ccccc1)[C@H](O)CN1C[C@H]2CCCC[C@H]2C[C@H]1C(=O)NC(C)(C)C` [Nelfinavir]: the “modulation of protein degradation (time course of appearance of the mobile product subpopulation)” value is given as “promotion of degradation”.
Turning to `CC(C)C[C@H](NC(=O)[C@@H](NC(=O)N[C@@H](Cc1ccccc1)C(=O)O)[C@@H]1CCN=C(N)N1)C(=O)N[C@H](C=O)Cc1ccccc1` [chymostatin], the “modulation of protein degradation (time course of appearance of the mobile product subpopulation)” value was “Modulation of protein degradation is clear”.
The result for leupeptin hemisulfate reads “Modulation of protein degradation is clear”.

The record behind these values is patent US20130102081A1, “Detection and Characterization of Protein Degradation, Protein Degradation Modulation and Protein Degradation Modulators” (priority 2011, published 2013).
